According to patent US10173968B2, “Bishydrazone-based antifungal agents” (University of Kentucky Research Foundation, priority 2016, dated 2019):
Like-named read-outs stand apart in the source and are kept apart here.

What was measured:
S. enterica ATCC 14028 = experiment: Antibacterial MIC, double-dilution method; type: cell-based; conditions: Salmonella enterica, ATCC14028, strain J, Gram-negative, read-out: MIC
Method in brief: (§1)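 The lowest inhibitory concentration is reported from a twofold dilution series, after an initial single-concentration screen with every compound at 500 μM.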

E. coli MC1061 = experiment: Antibacterial MIC, double-dilution method; type: cell-based; conditions: Escherichia coli, strain G, Gram-negative, read-out: MIC
Method in brief: as §1

P. aeruginosa ATCC 27853 = experiment: Antibacterial MIC, double-dilution method; type: cell-based; conditions: Pseudomonas aeruginosa, ATCC27853, strain I, Gram-negative, read-out: MIC
Method in brief: as §1

[1] = tested on: L. monocytogenes ATCC 19115; experiment: Antibacterial MIC, double-dilution method; type: cell-based; conditions: Listeria monocytogenes, ATCC19115, strain B, Gram-positive, read-out: MIC
Method in brief: as §1

VRE = experiment: Antibacterial MIC, double-dilution method; type: cell-based; conditions: Enterococcus, strain D, Gram-positive, read-out: MIC
Method in brief: as §1

E. cloacae ATCC 13047 = experiment: Antibacterial MIC, double-dilution method; type: cell-based; conditions: Enterobacter cloacae, ATCC13047, strain F, Gram-negative, read-out: MIC
Method in brief: as §1

MRSA = experiment: Antibacterial MIC, double-dilution method; type: cell-based; conditions: Staphylococcus aureus, strain C, Gram-positive, read-out: MIC
Method in brief: as §1

A. baumannii ATCC 19606 = experiment: Antibacterial MIC, double-dilution method; type: cell-based; conditions: Acinetobacter baumannii, ATCC19606, strain E, Gram-negative, read-out: MIC
Method in brief: as §1

K. pneumoniae ATCC 27736 = experiment: Antibacterial MIC, double-dilution method; type: cell-based; conditions: Klebsiella pneumoniae, ATCC27736, strain H, Gram-negative, read-out: MIC
Method in brief: as §1

B. subtilis 168 = experiment: Antibacterial MIC, double-dilution method; type: cell-based; conditions: Bacillus subtilis, strain A, Gram-positive
Method in brief: as §1

M. smegmatis MC2-155 = experiment: Antibacterial MIC, double-dilution method; type: cell-based; conditions: Mycolicibacterium smegmatis, MC2155, strain K, mycobacterial, read-out: MIC
Method in brief: as §1

C. albicans ATCC 10231 = experiment: Antifungal MIC, CLSI M27-A3 microbroth dilution; type: cell-based, Candida albicans; conditions: Candida albicans, ATCC10231, C. albicans ATCC 10231, resistant to FLC, ITC, and VOR, read-out: MIC
Method: (§2) In vitro MIC testing was performed according to the CLSI M27-A3 standard microbroth dilution methodology for the susceptibility testing of yeasts with minor modifications.

C. albicans ATCC 1003 = experiment: Antifungal MIC, CLSI M27-A3 microbroth dilution; type: cell-based, Candida albicans; conditions: Candida albicans, ATCC1003, read-out: MIC
Method: as §2

C. albicans ATCC 2876 = experiment: Antifungal MIC, CLSI M27-A3 microbroth dilution; type: cell-based, Candida albicans; conditions: Candida albicans, ATCC2876, C. albicans ATCC 2876, susceptible to FLC, ITC, and VOR, read-out: MIC
Method: as §2

C. albicans ATCC 64124 = experiment: Antifungal MIC, CLSI M27-A3 microbroth dilution; type: cell-based, Candida albicans; conditions: Candida albicans, ATCC64124, C. albicans ATCC 64124, resistant to FLC, ITC, and VOR, read-out: MIC
Method: as §2

C. albicans ATCC 2310 = experiment: Antifungal MIC, CLSI M27-A3 microbroth dilution; type: cell-based, Candida albicans; conditions: Candida albicans, ATCC2310, C. albicans ATCC 2310, susceptible to FLC, ITC, and VOR, read-out: MIC
Method: as §2

C. albicans ATCC 1237 = experiment: Antifungal MIC, CLSI M27-A3 microbroth dilution; type: cell-based, Candida albicans; conditions: Candida albicans, ATCC1237, C. albicans ATCC 1237, resistant to FLC, ITC, and VOR, read-out: MIC
Method: as §2

C. albicans ATCC 90819 = experiment: Antifungal MIC, CLSI M27-A3 microbroth dilution; type: cell-based, Candida albicans; conditions: Candida albicans, ATCC90819, C. albicans ATCC 90819, resistant to FLC, ITC, and VOR, read-out: MIC
Method: as §2

[2] = tested on: C. albicans strains (panel of seven); experiment: Antifungal MIC, summary over the panel; type: cell-based, Candida albicans; conditions: for antifungal activity in words: against all fungal strains tested
Method in brief: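 Yeast susceptibility is tested by modified CLSI M27-A3 microbroth dilution, and MIC is the lowest concentration completely inhibiting growth versus control on visual reading.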

[3] = tested on: all bacterial strains tested; experiment: Antibacterial MIC, summary over the panel; type: cell-based; conditions: read-out: antibacterial MIC values
Method: MIC values were determined against a variety of Gram-positive (strains A-D) and Gram-negative (E-J) bacterial and mycobacterial (K) strains using the double-dilution method, as previously published. Preliminary screening was performed using 500 μM of each compound.

[4] = C. albicans ATCC 1003, converted from μg/mL

Row | Structure (SMILES) | MIC (S. enterica ATCC 14028; converted from μM) [µg/mL] | MIC (S. enterica ATCC 14028; range 0.5 to 500 μM) [µM] | MIC (E. coli MC1061; converted from μM) [µg/mL] | MIC (E. coli MC1061; range 0.5 to 500 μM) [µM] | MIC (P. aeruginosa ATCC 27853; converted from μM) [µg/mL] | MIC (P. aeruginosa ATCC 27853; range 0.5 to 500 μM) [µM] | MIC ([1]; converted from μM) [µg/mL] | MIC ([1]; range 0.5 to 500 μM) [µM] | MIC (VRE; converted from μM) [µg/mL] | MIC (E. cloacae ATCC 13047; converted from μM) [µg/mL] | MIC (E. cloacae ATCC 13047; range 0.5 to 500 μM) [µM] | MIC (MRSA; converted from μM) [µg/mL] | MIC (A. baumannii ATCC 19606; converted from μM) [µg/mL] | MIC (A. baumannii ATCC 19606; range 0.5 to 500 μM) [µM] | MIC (K. pneumoniae ATCC 27736; converted from μM) [µg/mL] | MIC (K. pneumoniae ATCC 27736; range 0.5 to 500 μM) [µM] | MIC (B. subtilis 168; converted from μM) [µg/mL] | MIC (B. subtilis 168; range 0.5 to 500 μM) [µM] | MIC (M. smegmatis MC2-155; converted from μM) [µg/mL] | MIC (M. smegmatis MC2-155; range 0.5 to 500 μM) [µM] | also measured
1 | Cl.N=C(N)N/N=C/c1ccc(-c2ccc(C=NNc3ccccc3Cl)cc2)cc1 (mixture of isomers) [Compound 7Aa, E)-2-((4′-((E and Z)-(2-(2-Chlorophenyl)hydrazono)methyl)-[1,1′-biphenyl]-4-yl)methylene)hydrazine-1-carboximidamide monohydrochloride] | > 215 | > 500 | > 215 | > 500 | > 215 | > 500 | 0.4 to 0.9 | 1 to 2 | 0.9 | > 215 | > 500 | 0.9 | > 215 | > 500 | > 215 | > 500 | > 215 | > 500 | 1.7 | 3.9 | MIC (C. albicans ATCC 10231; converted from μg/mL): 4.6 µM; MIC (C. albicans ATCC 1003; [4]): 4.6 µM; MIC (C. albicans ATCC 2876; converted from μg/mL): 4.6 µM; MIC (C. albicans ATCC 64124; converted from μg/mL): 9.2 µM; MIC (C. albicans ATCC 64124): 3.9 µg/mL; MIC (C. albicans ATCC 2310; converted from μg/mL): 4.6 µM; MIC (C. albicans ATCC 1237; converted from μg/mL): 9.2 µM; MIC (C. albicans ATCC 1237): 3.9 µg/mL; MIC (C. albicans ATCC 90819; converted from μg/mL): 4.6 µM; antifungal activity in words [2]: excellent antifungal activities
2 | Cl.Cl.N=C(N)N/N=C/c1ccc(-c2cccc(/C=N/NC(=N)N)c2)cc1 [Compound 3B, (2E,2′E)-2,2′-([1,1′-Biphenyl]-3,4′-diylbis(methanylylidene))bis(hydrazine-1-carboximidamide) dihydrochloride] | > 198 | > 500 | > 198 | > 500 | > 198 | > 500 | 0.4 | 1 | 1.5 | > 198 | > 500 | 1.5 | > 198 | > 500 | > 198 | > 500 | > 198 | > 500 | 0.4 | 1 | MIC (VRE; range 0.5 to 500 μM): 3.9 µM; MIC (MRSA; range 0.5 to 500 μM): 3.9 µM; MIC (C. albicans ATCC 10231; converted from μg/mL): 9.9 µM; MIC (C. albicans ATCC 10231): 3.9 µg/mL; MIC (C. albicans ATCC 1003; [4]): 9.9 µM; MIC (C. albicans ATCC 1003): 3.9 µg/mL; MIC (C. albicans ATCC 2876; converted from μg/mL): 9.9 µM; MIC (C. albicans ATCC 2876): 3.9 µg/mL; MIC (C. albicans ATCC 64124; converted from μg/mL): 9.9 µM; MIC (C. albicans ATCC 64124): 3.9 µg/mL; MIC (C. albicans ATCC 2310; converted from μg/mL): 9.9 µM; MIC (C. albicans ATCC 2310): 3.9 µg/mL; MIC (C. albicans ATCC 1237; converted from μg/mL): 9.9 µM; MIC (C. albicans ATCC 1237): 3.9 µg/mL; MIC (C. albicans ATCC 90819; converted from μg/mL): 9.9 µM; MIC (C. albicans ATCC 90819): 3.9 µg/mL; antifungal activity in words [2]: excellent antifungal activities; MIC [3]: 0.4 to 3.3 µg/mL
3 | Cl.N=C(N)N/N=C/c1ccc(-c2ccc(/C=N/Nc3ccc(Cl)cc3)cc2)cc1 [Compound 7Ad, (E)-2-((4′-((E)-(2-(4-Chlorophenyl)hydrazono)methyl)-[1,1′-biphenyl]-4-yl)methylene)hydrazine-1-carboximidamide monohydrochloride] | > 214 | > 500 | > 214 | > 500 | > 214 | > 500 | 1.7 | 3.9 | 1.7 | > 214 | > 500 | 3.3 | > 214 | > 500 | > 214 | > 500 | > 214 | > 500 | 1.7 | 3.9 | MIC (VRE; range 0.5 to 500 μM): 3.9 µM; MIC (MRSA; range 0.5 to 500 μM): 7.8 µM; MIC (C. albicans ATCC 10231; converted from μg/mL): 18.3 µM; MIC (C. albicans ATCC 10231): 7.8 µg/mL; MIC (C. albicans ATCC 1003; [4]): 9.1 µM; MIC (C. albicans ATCC 1003): 3.9 µg/mL; MIC (C. albicans ATCC 2876; converted from μg/mL): 18.3 µM; MIC (C. albicans ATCC 2876): 7.8 µg/mL; MIC (C. albicans ATCC 64124; converted from μg/mL): 36.5 µM; MIC (C. albicans ATCC 64124): 15.6 µg/mL; MIC (C. albicans ATCC 2310; converted from μg/mL): 9.1 µM; MIC (C. albicans ATCC 2310): 3.9 µg/mL; MIC (C. albicans ATCC 1237; converted from μg/mL): 36.5 µM; MIC (C. albicans ATCC 1237): 15.6 µg/mL; MIC (C. albicans ATCC 90819; converted from μg/mL): 18.3 µM; MIC (C. albicans ATCC 90819): 7.8 µg/mL; MIC ([2]; Candida albicans, all, most or majority of the fungal strains, read-out: MIC, span over C. albicans strains): 7.8 to 15.6 µg/mL; MIC [3]: 0.4 to 3.3 µg/mL
4 | Cl.N=C(N)N/N=C/c1ccc(-c2ccc(/C=N/Nc3ccc(F)cc3F)cc2)cc1 [Compound 7Af, (E)-2-((4′-((E)-(2-(2,4-Difluorophenyl)hydrazono)methyl)-[1,1′-biphenyl]-4-yl)methylene) hydrazine-1-carboximidamide, monohydrochloride] | > 214 | > 500 | > 214 | > 500 | > 214 | > 500 | 0.9 to 1.7 | 2 to 3.9 | 1.7 | > 214 | > 500 | 1.7 | > 214 | > 500 | > 214 | > 500 | > 214 | > 500 | 0.9 to 1.7 | 2 to 3.9 | MIC (VRE; range 0.5 to 500 μM): 3.9 µM; MIC (MRSA; range 0.5 to 500 μM): 3.9 µM; MIC (C. albicans ATCC 10231; converted from μg/mL): 2.3 µM; MIC (C. albicans ATCC 10231): 1 µg/mL; MIC (C. albicans ATCC 1003; [4]): 4.5 µM; MIC (C. albicans ATCC 1003): 2 µg/mL; MIC (C. albicans ATCC 2876; converted from μg/mL): 9.1 µM; MIC (C. albicans ATCC 2876): 3.9 µg/mL; MIC (C. albicans ATCC 64124; converted from μg/mL): 9.1 µM; MIC (C. albicans ATCC 64124): 3.9 µg/mL; MIC (C. albicans ATCC 2310; converted from μg/mL): 9.1 µM; MIC (C. albicans ATCC 2310): 3.9 µg/mL; MIC (C. albicans ATCC 1237; converted from μg/mL): 9.1 µM; MIC (C. albicans ATCC 1237): 3.9 µg/mL; MIC (C. albicans ATCC 90819; converted from μg/mL): 18.2 µM; MIC (C. albicans ATCC 90819): 7.8 µg/mL; antifungal activity in words [2]: excellent antifungal activities; MIC [3]: 0.4 to 3.3 µg/mL
